Test results taken from patent publication US12240853B2, “Compounds useful in HIV therapy” (GlaxoSmithKline Intellectual Property (No.2) Limited, priority 2019, dated 2025).
Read-outs that look alike come from different tables or passages of the source.

Test: Example 18 cynomolgus monkey PK study (SC and IM)
Format: in vivo, cynomolgus monkeys
Settings: male, cynomolgus monkey, plasma, read-out: Example 18 plasma concentrations
From the text: Example 18 referenced herein was made in accordance with Synthesis B. Six male cynomolgus monkeys (+1 spare) were selected from the Testing Facility's colony of non-naïve animals. The animals were assigned to the study based on acceptable health as determined by a Testing Facility veterinarian. Six animals were selected and placed into two groups of three animals each. Fasting of the animals before or after dosing was not required.
[…] […] The animals were manually restrained for dosing and were not sedated. The dose sites were clipped of hair and wiped with alcohol before dosing. All dosing was performed as detailed in the study protocol and was completed without incident.
Blood samples were collected from the study animals as detailed in the sample collection Table 39 below.
Blood samples were collected by venipuncture of a cephalic vein. For PK, blood was transferred to a blood collection tube containing NaF/Na2EDTA anticoagulant, mixed by inversion, and maintained on wet ice until processing. The blood samples were centrifuged at 2200×g for 10 minutes at 5° C. to isolate plasma. The resulting plasma samples were transferred to individual polypropylene tubes in a 96-well plate format and immediately placed on dry ice until storage at nominally −20° C. prior to shipment for analysis.
The PK plasma samples were analyzed approximately every two weeks by the Testing Facility to determine the concentration of Example 18 (prodrug) and parent using an LC-MS/MS Research Grade Assay (RGA-1) with sensitivity to 0.1 ng/mL. Following interim review of sample analysis data, analysis for Example 18 (prodrug) was discontinued after the Day 57 sample collections. The bioanalytical report and sample concentration data are presented in Tables 40 and 41, and mean concentration-time profiles are shown in FIGS. 29 and 30

[1] = intramuscular, 20 mg/kg equivalent of EFdA, IM 20 mg/kg equivalent of EFdA, Monkey 2001
[2] = intramuscular, 20 mg/kg equivalent of EFdA, IM 20 mg/kg equivalent of EFdA, Monkey 2002
[3] = intramuscular, 20 mg/kg equivalent of EFdA, IM 20 mg/kg equivalent of EFdA, Monkey 2003
[4] = sc, 20 mg/kg, SC 20 mg/kg equivalent of EFdA, Mean
[5] = sc, 20 mg/kg, SC 20 mg/kg equivalent of EFdA, Monkey 1001
[6] = sc, 20 mg/kg, SC 20 mg/kg equivalent of EFdA, Monkey 1002 (column 3)
[7] = sc, 20 mg/kg, SC 20 mg/kg equivalent of EFdA, Monkey 1002

**Q.** For `C#C[C@]1(COC(=O)CCCCCCCCC)O[C@@H](n2cnc3c(N)nc(F)nc32)C[C@@H]1OC(=O)CCCCCCCCC` [Example 18, (2R,3S,5R)-5-(6-amino-2-fluoro-9H-purin-9-yl)-2-((decanoyloxy)methyl)-2-ethynyltetrahydrofuran-3-yl Decanoate], which concentration at 0.208 days [1] is on record?
**A.** Its concentration at 0.208 days is 51.3 ng/mL.

**Q.** And the concentration at 0.292 days [1]?
**A.** The concentration at 0.292 days was 30.1 ng/mL.

**Q.** And the concentration at 1 days [1]?
**A.** Its concentration at 1 days is 6.89 ng/mL.

**Q.** And the concentration at 2 days [1]?
**A.** The concentration at 2 days was 0.652 ng/mL.

**Q.** What about the concentration at 3 days [1] of the same compound?
**A.** The concentration at 3 days was 0.379 ng/mL.

**Q.** What about the concentration at 8 days [1] of the same compound?
**A.** The concentration at 8 days was 0.203 ng/mL.

**Q.** And the concentration at 10 days [1]?
**A.** Its concentration at 10 days is 0.156 ng/mL.

**Q.** And the concentration at 17 days [1]?
**A.** The concentration at 17 days was 0.135 ng/mL.

**Q.** And the concentration at 19 days [1]?
**A.** The concentration at 19 days was 0.119 ng/mL.

**Q.** What about the concentration at 22 days [1] of the same compound?
**A.** The concentration at 22 days was 0.146 ng/mL.

**Q.** And the concentration at 29 days [1]?
**A.** The concentration at 29 days was 0.155 ng/mL.

**Q.** What about the concentration at 0.021 days [2] of the same compound?
**A.** Its concentration at 0.021 days is 40.2 ng/mL.

**Q.** What about the concentration at 0.042 days [2] of the same compound?
**A.** The concentration at 0.042 days was 82.6 ng/mL.

**Q.** And the concentration at 0.125 days [2]?
**A.** Its concentration at 0.125 days is 363 ng/mL.

**Q.** What about the concentration at 0.208 days [2] of the same compound?
**A.** Its concentration at 0.208 days is 692 ng/mL.

**Q.** What about the concentration at 0.292 days [2] of the same compound?
**A.** The concentration at 0.292 days was 821 ng/mL.

**Q.** And the concentration at 1 days [2]?
**A.** The concentration at 1 days was 110 ng/mL.

**Q.** And the concentration at 2 days [2]?
**A.** Its concentration at 2 days is 0.674 ng/mL.

**Q.** What about the concentration at 3 days [2] of the same compound?
**A.** Its concentration at 3 days is 0.533 ng/mL.

**Q.** What about the concentration at 8 days [2] of the same compound?
**A.** Its concentration at 8 days is 0.248 ng/mL.

**Q.** What about the concentration at 10 days [2] of the same compound?
**A.** The concentration at 10 days was 0.251 ng/mL.

**Q.** What about the concentration at 17 days [2] of the same compound?
**A.** The concentration at 17 days was 0.16 ng/mL.

**Q.** And the concentration at 19 days [2]?
**A.** The concentration at 19 days was 0.149 ng/mL.

**Q.** And the concentration at 22 days [2]?
**A.** Its concentration at 22 days is 0.114 ng/mL.

**Q.** What about the concentration at 25 days [2] of the same compound?
**A.** The concentration at 25 days was 0.125 ng/mL.

**Q.** What about the concentration at 29 days [2] of the same compound?
**A.** Its concentration at 29 days is 0.135 ng/mL.

**Q.** What about the concentration at 0.021 days [3] of the same compound?
**A.** The concentration at 0.021 days was 1.93 ng/mL.

**Q.** What about the concentration at 0.042 days [3] of the same compound?
**A.** The concentration at 0.042 days was 0.79 ng/mL.

**Q.** And the concentration at 0.125 days [3]?
**A.** Its concentration at 0.125 days is 3.31 ng/mL.

**Q.** And the concentration at 0.208 days [3]?
**A.** The concentration at 0.208 days was 5.27 ng/mL.

**Q.** What about the concentration at 0.292 days [3] of the same compound?
**A.** Its concentration at 0.292 days is 6.42 ng/mL.

**Q.** And the concentration at 1 days [3]?
**A.** Its concentration at 1 days is 2.08 ng/mL.

**Q.** And the concentration at 2 days [3]?
**A.** The concentration at 2 days was 0.387 ng/mL.

**Q.** What about the concentration at 3 days [3] of the same compound?
**A.** The concentration at 3 days was 0.63 ng/mL.

**Q.** What about the concentration at 8 days [3] of the same compound?
**A.** The concentration at 8 days was 0.171 ng/mL.

**Q.** What about the concentration at 10 days [3] of the same compound?
**A.** Its concentration at 10 days is 0.19 ng/mL.

**Q.** What about the concentration at 17 days [3] of the same compound?
**A.** The concentration at 17 days was 0.154 ng/mL.

**Q.** What about the concentration at 19 days [3] of the same compound?
**A.** The concentration at 19 days was 0.129 ng/mL.

**Q.** And the concentration at 22 days [3]?
**A.** Its concentration at 22 days is 0.113 ng/mL.

**Q.** And the concentration at 25 days [3]?
**A.** The concentration at 25 days was 0.151 ng/mL.

**Q.** And the concentration at 46 days (intramuscular, 20 mg/kg equivalent of EFdA, IM 20 mg/kg equivalent of EFdA, Monkey 2003, 46 days)?
**A.** The concentration at 46 days was 0.105 ng/mL.

**Q.** And the concentration at 0.021 days [4]?
**A.** The concentration at 0.021 days was 0.235 ng/mL.

**Q.** And the concentration at 0.042 days [4]?
**A.** Its concentration at 0.042 days is 0.905 ng/mL.

**Q.** What about the concentration at 0.125 days [4] of the same compound?
**A.** The concentration at 0.125 days was 3.94 ng/mL.

**Q.** What about the concentration at 0.208 days [4] of the same compound?
**A.** The concentration at 0.208 days was 4.95 ng/mL.

**Q.** What about the concentration at 0.292 days [4] of the same compound?
**A.** The concentration at 0.292 days was 4.53 ng/mL.

**Q.** And the concentration at 1 days [4]?
**A.** Its concentration at 1 days is 1.12 ng/mL.

**Q.** And the concentration at 2 days [4]?
**A.** The concentration at 2 days was 0.405 ng/mL.

**Q.** What about the concentration at 3 days [4] of the same compound?
**A.** Its concentration at 3 days is 0.312 ng/mL.

**Q.** What about the concentration at 8 days [4] of the same compound?
**A.** Its concentration at 8 days is 0.117 ng/mL.

**Q.** And the concentration at 10 days [4]?
**A.** Its concentration at 10 days is 129 ng/mL.

**Q.** And the concentration at 0.021 days [5]?
**A.** The concentration at 0.021 days was 49.4 ng/mL.

**Q.** And the concentration at 0.042 days [5]?
**A.** The concentration at 0.042 days was 70.3 ng/mL.

**Q.** And the concentration at 0.125 days [5]?
**A.** Its concentration at 0.125 days is 149 ng/mL.

**Q.** What about the concentration at 0.208 days [5] of the same compound?
**A.** Its concentration at 0.208 days is 92.8 ng/mL.

**Q.** What about the concentration at 0.292 days [5] of the same compound?
**A.** The concentration at 0.292 days was 146 ng/mL.

**Q.** What about the concentration at 1 days [5] of the same compound?
**A.** Its concentration at 1 days is 36.5 ng/mL.

**Q.** And the concentration at 2 days [5]?
**A.** Its concentration at 2 days is 0.734 ng/mL.

**Q.** What about the concentration at 3 days [5] of the same compound?
**A.** Its concentration at 3 days is 0.694 ng/mL.

**Q.** And the concentration at 10 days [5]?
**A.** Its concentration at 10 days is 0.146 ng/mL.

**Q.** What about the concentration at 0.021 days [6] of the same compound?
**A.** The concentration at 0.021 days was 0.133 ng/mL.

**Q.** What about the concentration at 0.042 days [6] of the same compound?
**A.** Its concentration at 0.042 days is 0.179 ng/mL.

**Q.** And the concentration at 0.125 days [6]?
**A.** Its concentration at 0.125 days is 2.29 ng/mL.

**Q.** And the concentration at 0.208 days [6]?
**A.** The concentration at 0.208 days was 1.91 ng/mL.

**Q.** And the concentration at 0.292 days [6]?
**A.** Its concentration at 0.292 days is 2.38 ng/mL.

**Q.** And the concentration at 1 days [6]?
**A.** The concentration at 1 days was 0.641 ng/mL.

**Q.** And the concentration at 2 days [6]?
**A.** The concentration at 2 days was 0.579 ng/mL.

**Q.** And the concentration at 3 days [6]?
**A.** Its concentration at 3 days is 0.396 ng/mL.

**Q.** What about the concentration at 8 days [6] of the same compound?
**A.** The concentration at 8 days was 0.131 ng/mL.

**Q.** What about the concentration at 10 days [6] of the same compound?
**A.** The concentration at 10 days was 0.146 ng/mL.

**Q.** And the concentration at 0.021 days [7]?
**A.** Its concentration at 0.021 days is 0.337 ng/mL.

**Q.** And the concentration at 0.042 days [7]?
**A.** Its concentration at 0.042 days is 1.63 ng/mL.

**Q.** And the concentration at 0.125 days [7]?
**A.** Its concentration at 0.125 days is 5.59 ng/mL.

**Q.** And the concentration at 0.208 days [7]?
**A.** The concentration at 0.208 days was 7.99 ng/mL.

**Q.** What about the concentration at 0.292 days [7] of the same compound?
**A.** Its concentration at 0.292 days is 6.67 ng/mL.

**Q.** And the concentration at 1 days [7]?
**A.** Its concentration at 1 days is 1.6 ng/mL.

**Q.** What about the concentration at 2 days [7] of the same compound?
**A.** Its concentration at 2 days is 0.23 ng/mL.

**Q.** And the concentration at 3 days [7]?
**A.** Its concentration at 3 days is 0.228 ng/mL.

**Q.** What about the concentration at 8 days [7] of the same compound?
**A.** Its concentration at 8 days is 0.102 ng/mL.

**Q.** And the concentration at 10 days [7]?
**A.** The concentration at 10 days was 0.111 ng/mL.
